The values below come from PMC7699745, “The Search for New Anticonvulsants in a Group of (2,5-Dioxopyrrolidin-1-yl)(phenyl)Acetamides with Hybrid Structure—Synthesis and In Vivo/In Vitro Studies” (International Journal of Molecular Sciences, 2020).

Each structure is given as a SMILES string.

In series [1] the test system is MES seizures, mice. Nature of the series: Maximal electroshock (MES) seizure test. The format is in vivo. The note with it: Mus musculus, ip, 0.5 h, i.p., 100 mg/kg, 0.5 h, read-out: MES test, number of mice protected / number of mice tested (converted).
Series [2] concerns 6 Hz (32 mA) seizures, mice. As to the kind of experiment: Psychomotor 6 Hz (32 mA) seizure model. The following applies: Mus musculus, ip, 100 mg/kg, 0.5 h, read-out: 6 Hz (32 mA) test, number of mice protected / number of mice tested (converted). The format is in vivo.

In the case of `O=C(Nc1cccc(F)c1)C(c1ccccc1)N1C(=O)CCC1=O` (stereo not shown) [Compound 5, 2-(2,5-Dioxopyrrolidin-1-yl)-N-(3-fluorophenyl)-2-phenylacetamide], the responders at 100 mg/kg was 0% in series [1] and 25% in series [2]. For `O=C(Nc1ccccc1Cl)C(c1ccccc1)N1C(=O)CCC1=O` (stereo not shown) [Compound 7, N-(2-Chlorophenyl)-2-(2,5-dioxopyrrolidin-1-yl)-2-phenylacetamide], the melting point was in the range of 76.8 to 78.6 °C. Moreover, the responders at 100 mg/kg in series [1] was 0%. Besides, the responders at 100 mg/kg in series [2] was 25%. Turning to `O=C(Nc1ccccc1C(F)(F)F)C(c1ccccc1)N1C(=O)CCC1=O` (stereo not shown) [Compound 10, 2-(2,5-Dioxopyrrolidin-1-yl)-2-phenyl-N-(2-(trifluoromethyl)phenyl)acetamide], the responders at 100 mg/kg in series [1] is 0%. For `O=C(Nc1cccc(C(F)(F)F)c1)C(c1ccccc1)N1C(=O)CCC1=O` (stereo not shown) [Compound 11, 2-(2,5-Dioxopyrrolidin-1-yl)-2-phenyl-N-(3-(trifluoromethyl)phenyl)acetamide], the melting point is 158.2 to 159.4 °C. The responders at 100 mg/kg in series [1] was 25%. For `O=C(Nc1ccc(C(F)(F)F)cc1)C(c1ccccc1)N1C(=O)CCC1=O` (stereo not shown) [Compound 12, 2-(2,5-Dioxopyrrolidin-1-yl)-2-phenyl-N-(4-(trifluoromethyl)phenyl)acetamide], in that order: 188.1 to 188.5 °C and 0%.

In turn, `O=C(Nc1cccc(OC(F)(F)F)c1)C(c1ccccc1)N1C(=O)CCC1=O` (stereo not shown) [Compound 13, 2-(2,5-Dioxopyrrolidin-1-yl)-2-phenyl-N-(3-(trifluoromethoxy)phenyl)acetamide] showed a melting point of 132.6 to 133.4 °C. Also, the responders at 100 mg/kg in series [1] was 0%. In the same order, the values of `O=C(NCc1ccccc1F)C(c1ccccc1)N1C(=O)CCC1=O` (stereo not shown) [Compound 15, 2-(2,5-Dioxopyrrolidin-1-yl)-N-(2-fluorobenzyl)-2-phenylacetamide] are 148.3 to 149.3 °C and 25%. The compound `O=C(NCc1cccc(F)c1)C(c1ccccc1)N1C(=O)CCC1=O` (stereo not shown) [Compound 16, 2-(2,5-Dioxopyrrolidin-1-yl)-N-(3-fluorobenzyl)-2-phenylacetamide] showed a melting point of 136.7 to 137.7 °C. Besides, the responders at 100 mg/kg in series [1] is 25%. In the same order, the values of `O=C(NCc1ccc(F)cc1)C(c1ccccc1)N1C(=O)CCC1=O` (stereo not shown) [Compound 17, 2-(2,5-Dioxopyrrolidin-1-yl)-N-(4-fluorobenzyl)-2-phenylacetamide] are 146.3 to 147.7 °C and 0%. For `O=C(NCc1ccccc1Cl)C(c1ccccc1)N1C(=O)CCC1=O` (stereo not shown) [Compound 18, N-(2-Chlorobenzyl)-2-(2,5-dioxopyrrolidin-1-yl)-2-phenylacetamide], the melting point lay in the range of 152 to 153.6 °C. The responders at 100 mg/kg in series [1] is 0%. For `O=C(NCc1ccc(Cl)cc1)C(c1ccccc1)N1C(=O)CCC1=O` (stereo not shown) [Compound 20, N-(4-Chlorobenzyl)-2-(2,5-dioxopyrrolidin-1-yl)-2-phenylacetamide], in that order: 146.3 to 147.9 °C and 0%. For `O=C(NCc1ccc(C(F)(F)F)cc1)C(c1ccccc1)N1C(=O)CCC1=O` (stereo not shown) [Compound 23, 2-(2,5-Dioxopyrrolidin-1-yl)-2-phenyl-N-(4-(trifluoromethyl)benzyl)acetamide], the responders at 100 mg/kg in series [1] was 0%. In turn, `O=C(NCCc1ccccc1F)C(c1ccccc1)N1C(=O)CCC1=O` (stereo not shown) [Compound 26, 2-(2,5-Dioxopyrrolidin-1-yl)-N-(2-fluorophenethyl)-2-phenylacetamide] displayed a melting point of 142.4 to 142.8 °C. Further, the responders at 100 mg/kg in series [1] was 25%.
